Counter-ions that a name gives are not always drawn.

The nature of this series: RP, Thermo Scientific Hypersil GOLD, 1.9 µm, 40 °C, 0.4 mL/min; A: water + 0.1% formic acid, pH 3; B: acetonitrile + 0.1% formic acid, pH 3; gradient (min/%B) 0/0 1/0 11/100 13/100 14/0 16/0. Particulars: stereoisomer not certain.
Regarding `NC(=O)c1ccc[n+](C2OC(COP(=O)(O)OP(=O)(O)OCC3OC(n4cnc5c(N)ncnc54)C(O)C3O)C(O)C2O)c1` (stereo not drawn) [BETA-NICOTINAMIDE ADENINE DINUCLEOTIDE], the LC retention time came out at 0.78 min.
In the case of `C=C(C)C1CC=C(C)C(=O)C1` [(R)-(-)-Carvone], the LC retention time stood at 8.19 min.
Consider `O=C([O-])c1c[nH]c(=O)[nH]c1=O` [URACIL 5-CARBOXYLATE], for which the LC retention time was 0.87 min.
As for `OCC1OC(OC2OC(CO)C(O)C(O)C2O)C(O)C(O)C1O` (configuration not stated) [TREHALOSE], the LC retention time is 0.65 min.
`Cc1ncc(C[n+]2csc(CCOP(=O)(O)O)c2C)c(N)n1` [THIAMINE MONOPHOSPHATE]: the LC retention time worked out at 0.63 min.
`CSCCC(O)C(=O)O` (configuration not stated) [2-HYDROXY-4-(METHYLTHIO)BUTANOATE]: the LC retention time was determined as 4.21 min.
Next, `O=C(O)C(=O)CCc1ccccc1` [2-oxo-4-phenyl-butyric acid]: 6.35 min.
`CC(C)(N)C(=O)O` [2-AMINOISOBUTYRATE]: the LC retention time was 0.67 min.
The result for `CC(=O)C1C(=O)C=C(C)OC1=O` (configuration not stated) [Dehydroacetic acid] reads 6.42 min; that for `Nc1ncnc2c1ncn2C1OC(CSCCC([NH3+])C(=O)[O-])C(O)C1O` (configuration not stated) [S-ADENOSYLHOMOCYSTEINE], 0.82 min; that for `O=C([O-])C(O)C(O)C(=O)[O-]` (stereo not drawn) [MESO-TARTRATE], 0.71 min.
Take `O=C(O)CC(Cc1ccccc1)C(=O)O` (racemic) [dl-benzylsuccinic acid]: the LC retention time was found to be 6.38 min.
Consider `CCCCCC(=O)OC(CC(=O)[O-])C[N+](C)(C)C` [Hexanoyl-L-carnitine], for which the LC retention time is 5.67 min.
As to `NC(CS(=O)(=O)O)C(=O)O` (configuration not stated) [CYSTEATE], the LC retention time is 0.65 min.
For `Nc1ccccc1C(=O)CC(N)C(=O)O` (configuration not stated) [KYNURENINE], the LC retention time was found to be 3.31 min.
`Cc1cn(C2CC(O)C(CO)O2)c(=O)[nH]c1=O` (configuration not stated) [THYMIDINE]: the LC retention time turned out to be 3.68 min.
Consider `Cn1cnc2nc(N)[nH]c(=O)c21` [7-methylguanine], for which the LC retention time was determined as 0.82 min.
The result for `O=P(O)(O)O` [Phosphoric acid_+H+] reads 0.64 min; that for `Cn1cncc1CC(NC(=O)CCN)C(=O)O` (configuration not stated) [ANSERINE], 0.57 min; that for `Nc1ncnc2c1ncn2C1OC(CO)C(OP(=O)(O)O)C1O` (configuration not stated) [Adenosine 3'-monophosphate free acid], 0.82 min.
For `O=C(O)c1cccc(O)c1` [3-HYDROXYBENZOATE], the LC retention time turned out to be 5.04 min.
`C[N+](C)(C)CCO` [CHOLINE]: the LC retention time is 0.62 min.
Next, `CC(C)C(C(=O)O)C(O)C(=O)O` (configuration not stated) [3-isopropylmalic acid]: 4.68 min; `O=C(O)CCCC(=O)C(=O)O` [2-OXOADIPATE]: 1.05 min; `Cn1cnc2[nH]c(=O)[nH]c(=O)c21` [7-Methylxanthine]: 2.15 min.
On to `CC(=O)OCC(=O)O` [Acetoxyacetic acid], for which the LC retention time amounted to 1.93 min.
Consider `Cc1c[nH]c(=O)[nH]c1=O` [THYMINE], for which the LC retention time was found to be 1.47 min.
With `CC(O)(CC(=O)O)CC(=O)O` [3-HYDROXYMETHYLGLUTARATE], the LC retention time was determined as 1.48 min.
As to `Cc1ccncc1` [4-Methylpyridine (4-Picoline)], the LC retention time was determined as 0.87 min.
With `O=c1c(O)c(-c2ccc(O)cc2O)oc2cc(O)cc(O)c12` [Morin hydrate], the LC retention time was determined as 6.29 min.
With `NCCc1ccc(O)cc1` [TYRAMINE], the LC retention time is 1.24 min.
With `NCCCCC(=O)O` [5-AMINOPENTANOATE], the LC retention time stood at 0.71 min.
`NC(N)=NCC(=O)O` [GUANIDINOACETATE]: the LC retention time was 0.62 min.
Next, `CCCCCCCCCCCCCCCCCCC(=O)O` [nonadecanoic acid]: 0.68 min.
As to `OCCNCCO` [DIETHANOLAMINE], the LC retention time came out at 0.6 min.
For `CCCCCCCCCCCC(=O)OC(CC(=O)[O-])C[N+](C)(C)C` (configuration not stated) [LAUROYLCARNITINE], the LC retention time is 8.63 min.
On to `COC(=O)CCC(=O)O` [mono-Methyl hydrogen succinate], for which the LC retention time worked out at 3.97 min.
The result for `NC(=O)CCCCC1CCSS1` (configuration not stated) [LIPOAMIDE] reads 6.53 min; that for `CN1CC(=O)NC1=N` [CREATININE], 0.62 min.
For `Nc1cc([O-])cc(C(=O)O)c1` [3-AMINO-5-HYDROXYBENZOATE], the LC retention time amounted to 0.81 min.
For `O=c1[nH]cnc2nc[nH]c12` [HYPOXANTHINE], the LC retention time was 0.83 min.
As to `C[N+](C)(C)CC(=O)[O-]` [BETAINE], the LC retention time turned out to be 0.65 min.
On to `O=C(O)CCCCCCC(=O)O` [SUBERATE], for which the LC retention time is 5.58 min.
On to `O=c1[nH]c(=O)c2nccnc2[nH]1` [2-4-DIHYDROXYPTERIDINE], for which the LC retention time worked out at 0.96 min.
In the case of `NC(=O)c1ccc[n+](C2OC(COP(=O)([O-])O)C(O)C2O)c1` (configuration not stated) [NICOTINAMIDE MONONUCLEOTIDE], the LC retention time was determined as 0.68 min.
For `CCCCC(N)C(=O)O` (configuration not stated) [NORLEUCINE], the LC retention time turned out to be 1.67 min.
For the compound `Nc1nc2c(ncn2C2OC(COP(=O)(O)O)C(O)C2O)c(=O)[nH]1` (configuration not stated) [GUANOSINE MONOPHOSPHATE], the LC retention time turned out to be 0.81 min.
For the compound `CC(CCC(=O)O)CC(=O)O` (configuration not stated) [3-Methyladipic acid], the LC retention time stood at 5.01 min.
As to `OCC1OCC(O)C(O)C1O` [1-5-Anhydro-D-sorbitol], the LC retention time is 0.7 min.
For the compound `O=C(O)CCCCCCCCCCCO` [OMEGA-HYDROXYDODECANOATE], the LC retention time came to 7.84 min.
With `O=C(O)c1ccc2ccccc2n1` [2-QUINOLINECARBOXYLATE], the LC retention time was 4.64 min.
Take `O=c1ccn(C2CC(O)C(CO)O2)c(=O)[nH]1` (configuration not stated) [DEOXYURIDINE]: the LC retention time was found to be 1.24 min.
The result for `Cc1ncc(CO)c(CO)c1O` [PYRIDOXINE] reads 0.82 min; that for `CSc1ncnc2nc[nH]c12` [THIOPURINE S-METHYLETHER], 4.8 min; that for `O=C(O)C(O)c1cccc(O)c1` (configuration not stated) [3-Hydroxymandelic acid], 2.66 min.
Regarding `CC=CC=CC(=O)O` [SORBATE], the LC retention time is 6.15 min.
As for `CCCCCCCCCCCCCCCCCCOCC(O)COP(=O)([O-])OCC[N+](C)(C)C` (configuration not stated) [C18_LysoPAF], the LC retention time is 10.4 min.
Turning to `CC(CCC(=O)O)C1CCC2C3CCC4CC(O)CCC4(C)C3CCC12C` (configuration not stated) [LITHOCHOLATE], the LC retention time worked out at 10.5 min.
Take `COc1cc(C(O)C(=O)O)ccc1O` (configuration not stated) [3-METHOXY-4-HYDROXYMANDELATE]: the LC retention time was determined as 2.15 min.
Next, `Nc1cccc2ccccc12` [1-NAPHTHYLAMINE]: 5.87 min; `O=C(O)CC(=O)CC(=O)O` [1-3-Acetonedicarboxylic acid]: 0.8 min; `CC12CCC3C(CC=C4CC(O)CCC43C)C1CCC2=O` (configuration not stated) [3-b-Hydroxyandrost-5-en-17-one (Dehydroepiandrosterone)]: 4.86 min.
For the compound `CCC(NC(=O)CCC(N)C(=O)O)C(=O)NCC(=O)O` (configuration not stated) [OPHTHALMATE], the LC retention time turned out to be 0.83 min.
On to `NC(CS(=O)O)C(=O)O` (configuration not stated) [3-SULFINOALANINE], for which the LC retention time worked out at 0.67 min.
For `CNC(CC(=O)O)C(=O)O` (configuration not stated) [N-METHYLASPARTATE], the LC retention time worked out at 0.63 min.
For the compound `CC(=O)OC(CC(=O)[O-])C[N+](C)(C)C` (stereo not drawn) [o-acetyl-l-carnitine hydrochloride], the LC retention time was 0.81 min.
The result for `NC(CCSCC(N)C(=O)O)C(=O)O` (configuration not stated) [CYSTATHIONINE] reads 0.61 min.
Next, `NC(CS)C(=O)NCC(=O)O` (configuration not stated) [CYS-GLY]: 0.59 min; `Nc1nc2c(ncn2C2OC3COP(=O)(O)OC3C2O)c(=O)[nH]1` (configuration not stated) [CYCLIC GMP]: 1.29 min; `O=C1CCNC(=O)N1` [DIHYDROURACIL]: 0.82 min.
Turning to `CC(=O)NC(CC(C)C)C(=O)O` (configuration not stated) [N-ACETYLLEUCINE], the LC retention time came out at 5.47 min.
Turning to `NC(=O)[C@@H](N)Cc1c[nH]c2ccccc12` [L-TRYPTOPHANAMIDE], the LC retention time was 4.1 min.
The result for `Cn1cc(C(N)=O)ccc1=O` [N-methyl-2-pyridone-5-carboxamide] reads 1.6 min.
Turning to `CC12CCC3c4ccc(O)cc4CCC3C1CCC2O` (stereo not drawn) [ESTRADIOL-17ALPHA], the LC retention time was determined as 8.07 min.
Turning to `CC(=O)N[C@@H](Cc1ccc(O)cc1)C(=O)O` [N-Acetyl-L-tyrosine], the LC retention time came to 4.56 min.
The result for `CCCCCCCC(=O)OC(CC(=O)[O-])C[N+](C)(C)C` [Octanoyl-L-carnitine] reads 6.74 min.
In the case of `O=C1CC(C(=O)O)NC(=O)N1` (configuration not stated) [DIHYDROOROTATE], the LC retention time is 0.77 min.
As for `NC1CCSC1=O` (configuration not stated) [HOMOCYSTEINE THIOLACTONE], the LC retention time amounted to 0.72 min.
As for `C/C(=C\C(=O)O)CC(=O)O` [(E)-3-Methylglutaconic acid], the LC retention time was 4.1 min.
Next, `O=C(O)c1ccc(O)c(O)c1` [3-4-DIHYDROXYBENZOATE]: 3.49 min.
In the case of `NCCc1cc(O)c(O)cc1O` [6-HYDROXYDOPAMINE], the LC retention time was found to be 0.77 min.
Regarding `NC(CCS)C(=O)O` (configuration not stated) [HOMOCYSTEINE], the LC retention time came out at 0.72 min.
Regarding `CC(CC(=O)O)C(=O)O` (configuration not stated) [Methyl-succinic acid], the LC retention time turned out to be 3.66 min.
`CC(=O)N[C@@H]1[C@@H](O)[C@H](O)[C@@H](CO)O[C@H]1N` [2-ACETAMIDO-2-DEOXY-BETA-D-GLUCOSYLAMINE]: the LC retention time was 0.6 min.
The result for `O=S(=O)(O)Oc1c[nH]c2ccccc12` [INDOXYL SULFATE] reads 4.77 min; that for `CCC(O)C(=O)[O-]` (configuration not stated) [2-HYDROXYBUTYRATE], 1.71 min; that for `CC(=O)C1(O)CCC2C3CCC4=CC(=O)CCC4(C)C3CCC21C` (configuration not stated) [17a-Hydroxyprogesterone], 8.44 min.

The record behind these values is the RepoRT retention time repository.
